Consider six molecules from patent publication US20240216321A1, “FERMENTATIVELY-PRODUCED RETINOID CONTAINING COMPOSITIONS, AND THE METHDOS OF MAKING AND USING THE SAME” (DSM IP Assets B.V., priority 2022, published 2024).

One data set deals with Cutibacterium acnes. Kind of data set: Antimicrobial efficacy test in analogy to challenge test NF EN ISO11930. The settings on record: for 24 hr count (remaining population) / Δ R (change from initial inoculum count to 24-hour count): initial inoculum count 100,000, 22° C.; for reduction of Cutibacterium acnes: stated as reduction. It counts as cell-based. The protocol: (§1) The antimicrobial efficacy of retinol and retinyl acetate having different cis/trans ratio has been assessed in analogy to the regulatory challenge test method (NF EN ISO11930). Thus, solutions of the respective retinol and retinyl acetate mixtures (reference samples and inventive mixtures with a purity of about 98%) were prepared in physiological serum with 0.85 wt.-% NaCl under sterile conditions. The presence of cis and trans-isomers in the retinoid component were calculated by reversed phase C4 HPLC analysis, with the total cis-isomer content in the retinoid component, relative to the total weight of trans-isomers in the retinoid component detected, is reported in Table 4 below along the row labelled “cis/trans ratio”. Also reported for each sample was the specific retinoid used as the retinoid component (either retinyl acetate or retinol for all samples). The solutions of the active(s) were then deposed in 96-deep well plates (1.6 ml/well) at a concentration as specified by wt. % in Table 4 below. The wells were contaminated with Cutibacterium acnes, Corynebacterium xerosis, and Malassezia furfur, respectively, to obtain the initial contamination. The initial contamination count, which is listed as “initial inoculum count” for each test as indicated in Tale 4 below, was determined to be 100,000. After contamination, each well was thoroughly mixed to ensure a homogeneous distribution of the microbes. Then each plate was incubated at 22° C. for 24 h. The counting of the (remaining) population was carried out 24 hours after contamination, as indicated below in Table 4 by the rows labelled “24 hr”. The change in count from the initial inoculum count to the 24-hour count (in terms of percentage) is reflected in the Table below by the rows labelled “A R”.

Another data set concerns Corynebacterium xerosis. The description is as above. Format: cell-based. The settings on record: initial inoculum count 100,000, 22° C. The protocol: as §1
Another data set deals with Malassezia furfur. Described as above. The note with it: concentration 0.25%, initial inoculum count 100,000, 22° C. Format: cell-based. As to the method:
as §1

Data set [1] is classed as physicochemical. As to the method: Retinoid quantification: Analysis of retinoids were carried out with a C4 reverse phase retinoid method (see below). The addition of all added intermediates gives the total amount of retinoids.
C4 reverse phase chromatography. For exact determination of discrete retinoids, the long run reverse phase system was used. Analytes were separated using the Agilent 1290 instrument with YMC Pro C4, 150×3.0 mm, 3 um column (YMC America, Allentown PA) stationary phase, and a 5 μl injection loop volume and column and sample tray controlled at 23° C. with gradients described in Table B. Analytes were detected at 210, 230 nm and 325 nm and the peak's identity was verified with LCMS. The analytes were separated as discrete peaks that were assigned according to the table below. […]
To determine oxidative stability of examples 1-5, each sample, the preparation of which is described above, was placed under ambient conditions (20° C. and 50% relative humidity preferred) in its own small brown glass vial, blanketed with argon, and put into an oven preheated to 105° C. Thereafter, the samples remained in the oven for 3 hours. After three hours the samples were taken out of the oven and analyzed via the same method(s) utilized to determine “initial” values as reported in Table 1 above. The values for each component were measured after the thermal stress test and compared to the values determined prior to the test. For clarity, example 1 indicated a total retinoid component (see row in Table 1 above labelled “all retinyl acetate (all species)”) prior to the thermal stress test of 90.53%; the change indicated in Table 2 of −1.31% below signifies that the total retinoid component determined after the thermal stress test was 89.22% (by weight relative to the entire sample weight).

The mark [2] stands for this setting: 105° C. for 3 hours, blanketed with argon, change vs value before test.

SMILES strings stand for the structures.

As for `CC(=O)OC/C=C(C)/C=C/C=C(C)/C=C/C1=C(C)CCCC1(C)C` [Ex. 8, Retinyl acetate], the “24 hr count (remaining population)” value is recorded as 70,000 with Cutibacterium acnes (concentration 0.1%), 70,000 with Corynebacterium xerosis (concentration 0.1%) and 37,000 in the data set with Corynebacterium xerosis (concentration 0.25%). Moreover, the “Δ R (change from initial inoculum count to 24-hour count)” value with Cutibacterium acnes (concentration 0.1%) is −30%; with Corynebacterium xerosis (concentration 0.1%) it was −30%; in the data set with Corynebacterium xerosis (concentration 0.25%), −63%. Besides, the “reduction of Cutibacterium acnes” value with Cutibacterium acnes (retinyl acetate mixtures) is on record as “about 30%”.
`CC(=O)OC/C=C(C)/C=C/C=C(C)/C=C/C1=C(C)CCCC1(C)C` [Ex. 9, Retinyl acetate]: the “24 hr count (remaining population)” value is on record as 70,000 with Cutibacterium acnes (concentration 0.1%), 70,000 in the data set with Corynebacterium xerosis (concentration 0.1%) and 10,000 with Corynebacterium xerosis (concentration 0.25%). Further, the “Δ R (change from initial inoculum count to 24-hour count)” value is −30% in the data set with Cutibacterium acnes (concentration 0.1%), −30% with Corynebacterium xerosis (concentration 0.1%) and −90% with Corynebacterium xerosis (concentration 0.25%). Moreover, the “reduction of Cutibacterium acnes” value in the data set with Cutibacterium acnes (retinyl acetate mixtures) is “about 30%”.
With `CC1=C(/C=C/C(C)=C/C=C/C(C)=C/CO)C(C)(C)CCC1` [Ex. 10, Retinol], the “24 hr count (remaining population)” value is given as 1,000 in the data set with Cutibacterium acnes (concentration 0.25%) and 100,000 in the data set on Malassezia furfur. The “Δ R (change from initial inoculum count to 24-hour count)” value in the data set on Cutibacterium acnes (concentration 0.25%) is given as −99%; in the data set on Malassezia furfur it was 0%.
Consider `CC(=O)OC/C=C(C)/C=C/C=C(C)/C=C/C1=C(C)CCCC1(C)C` [Example 5, retinyl acetate], for which, in data set [1] (setting [2]), the “9Z-retinal, % change” value is recorded as 0.00%; the “Dihydro-actinidiole, % change” value is listed as −0.01%; the “Dihydro-retinol, % change” value amounted to 0.00%; the “E-Retinal, % change” value was −0.01%. Moreover, in data set [1] (setting [2]), the “E-retinol, % change” value was −0.01%; the “Retinyl acetate (all species), % change” value is reported as −5.50%; the “Z-retinol, % change” value is −0.04%; the “cis-retinyl acetate, % change” value was −0.22%. In data set [1] (105° C. for 3 hours, blanketed with argon, change vs value before test (wt. % of entire composition)), the “Ethanol, % change” value is reported as 0.00%. Besides, the “reduction in retinyl acetate (loss of retinyl acetate content) after heat stability test” value in data set [1] (3 h) amounted to 5.50%.
With `CC(=O)OC/C=C(C)/C=C/C=C(C)/C=C/C1=C(C)CCCC1(C)C` [Ex. 7, Retinyl acetate], the figures for the “24 hr count (remaining population)” value in the data set with Cutibacterium acnes (concentration 0.1%), in the data set with Corynebacterium xerosis (concentration 0.1%) and in the data set on Corynebacterium xerosis (concentration 0.25%) were 370,000, 370,000 and 40,000, respectively. In addition, the “Δ R (change from initial inoculum count to 24-hour count)” value with Cutibacterium acnes (concentration 0.1%) was 270%; with Corynebacterium xerosis (concentration 0.1%), 270%; in the data set with Corynebacterium xerosis (concentration 0.25%), −60%.
`CC1=C(/C=C/C(C)=C/C=C/C(C)=C/CO)C(C)(C)CCC1` [Ex. 11, Retinol]: in the data set with Cutibacterium acnes (concentration 0.25%), the “24 hr count (remaining population)” value amounted to 700 and the “Δ R (change from initial inoculum count to 24-hour count)” value is −99.3%. For the same molecule, in the data set with Cutibacterium acnes (retinol compositions), the “reduction of Cutibacterium acnes” value is reported as 99.3%. For the same molecule, in the data set with Malassezia furfur, the “24 hr count (remaining population)” value was 40,000 and the “Δ R (change from initial inoculum count to 24-hour count)” value was −60%.
